EP0774460A1, “BENZOIC ACID COMPOUND AND USE THEREOF AS MEDICINE” (YOSHITOMI PHARMACEUTICAL INDUSTRIES, LTD., priority 1994, dated 1995)

Legend:
[1] = target: T1, 5-HT4 receptor (Cavia porcellus, UniProt O70528); assay: 5-HT4 receptor binding test; design: species or system guinea pig; conditions: [3H]GR113808 0.1 nM, crude synapse membrane from guinea pig striatum, 37°C; read-out: Affinity for receptor (Ki value, nM) 5-HT4
T1 construct: crude synapse membrane sample was prepared from guinea pig striatum; from tissue; host or cells: guinea pig striatum, crude synaptic membranes
Method: Experimental Example 1 : 5-HT4 receptor binding test
According to the method of C.J. Grossman et al. (British Journal of Pharmacology, vol. 109, pp. 618-624), a specific 5-HT4 receptor binding test was run using, as a tracer ligand, 1-methyl-1H-indole-3-carboxylic acid · 1-(2-methylsulfonylaminoethyl)-piperidin-4-ylmethyl ester substituted by tritium (hereinafter to be referred to as [3H]GR113808). Specifically, crude synapse membrane sample was prepared from guinea pig striatum, suspended in 50 mM HEPES buffer (pH 7.4) and used for testing. The test compound having several different concentrations and [3H]GR113808 (final concentration 0.1 nM) were added to this suspension and allowed to react at 37°C. Thirty minutes later, the reaction mixture was filtered by suction with cell harvester. The filter was washed with 50 mM HEPES buffer, and the radioactivity on the filter was counted by liquid scintillation counter. The non-specific binding was determined in the presence of 1 µM GR113808. The concentration of the test compound necessary for 50% inhibition (IC50) and Ki value were determined from graph.

[2] = target: T2, 5-HT3 receptor (Rattus norvegicus, UniProt P35563); assay: 5-HT3 receptor binding test; conditions: [3H]Granisetron 1.0 nM, crude synapse membrane from rat cerebral cortex, 25°C; for IC50: cells marked * are IC50, read-out: Affinity for receptor 5-HT3 (∗ shows IC50); for Ki: cells without asterisk, read-out: Affinity for receptor (Ki value, nM) 5-HT3
T2 construct: crude synapse membrane sample was prepared from rat cerebral cortex; from tissue; host or cells: rat cerebral cortex, crude synaptic membranes
T2 sequence (P35563 24-483): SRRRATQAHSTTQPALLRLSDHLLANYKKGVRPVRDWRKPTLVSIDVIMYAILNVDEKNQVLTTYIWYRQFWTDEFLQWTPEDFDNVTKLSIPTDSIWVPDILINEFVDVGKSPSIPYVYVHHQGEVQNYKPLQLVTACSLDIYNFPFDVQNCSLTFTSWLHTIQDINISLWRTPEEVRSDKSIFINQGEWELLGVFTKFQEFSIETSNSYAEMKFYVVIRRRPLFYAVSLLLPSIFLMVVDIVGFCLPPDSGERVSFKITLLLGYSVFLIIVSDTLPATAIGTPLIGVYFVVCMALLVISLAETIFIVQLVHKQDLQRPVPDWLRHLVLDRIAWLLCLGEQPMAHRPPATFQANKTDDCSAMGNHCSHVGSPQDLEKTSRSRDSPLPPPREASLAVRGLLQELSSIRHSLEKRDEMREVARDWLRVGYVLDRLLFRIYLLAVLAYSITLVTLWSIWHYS
Method: Experimental Example 2 : 5-HT3 receptor binding test
According to the method of Peroutka et al (European Journal of Pharmacology, vol. 148, pp. 297-299), a specific 5-HT3 receptor binding test was run using, as a tracer ligand, endo-1-methyl-N-(9-methyl-9-azabicyclo[3.3.1]non-3-yl)-1H-indazole-3-carboxamide substituted by tritium (hereinafter to be referred to as [3H]Granisetron). Specifically, crude synapse membrane sample was prepared from rat cerebral cortex, suspended in 50 mM HEPES buffer (pH 7.4) and used for testing. The test compound having several different concentrations and [3H]Granisetron (final concentration 1.0 nM) were added to this suspension and allowed to react at 25°C. Thirty minutes later, the reaction mixture was filtered by suction with cell harvester. The filter was washed with 50 mM Tris buffer (pH 7.4), and the radioactivity on the filter was counted using liquid scintillation counter or β-plate. The non-specific binding was determined in the presence of 1 µM Tropisetron. The concentration of the test compound necessary for 50% inhibition (IC50) and Ki value were determined from graph.

[3] = target: isolated guinea pig ascending colon (Cavia porcellus, UniProt O70528); assay: contraction of isolated guinea pig ascending colon; format: cell-based; conditions: male Hartley guinea pig ascending colon, Tyrode solution 37°C, relative to methacholine (30 µM) contraction; read-out: Contraction of removed colon (EC50)
Method: Experimental Example 3 : contraction of isolated guinea pig ascending colon
About 3 cm long ascending colon segment was taken from male Hartley guinea pig and suspended in 10 ml of a Tyrode solution ventilated with a mixed gas of oxygen (95%) and CO2 (5%) at 37°C with the load of 2 g. The contraction was isotonically measured via isotonic transducer. After an equilibrium period of about 30 min, the test compound was administered non-cumulatively from lower concentrations, and dose-dependent contraction was measured. The test compound was administered at 15 minutes intervals. Then, contraction by the test compound in the presence of a 5-HT4 receptor antagonist, 4-amino-3-chloro-6-methoxybenzoic acid · 2-diethylaminoethyl ester (0.3 µM, hereinafter to be referred to as SDZ 205-557) was determined, and antagonistic effect on the reaction by SDZ 205-557 was confirmed.
The contraction by the test compound was evaluated based on the ratio of reaction relative to mean contraction induced by methacholine (30 µM) administered before and after each determination of dose-dependent contraction. The contraction was probit-converted using the maximum value of dose-response curve as 100, and expressed by EC50 as determined from linear regression and maximum reaction ratio.

T1 sequence (O70528 whole entry): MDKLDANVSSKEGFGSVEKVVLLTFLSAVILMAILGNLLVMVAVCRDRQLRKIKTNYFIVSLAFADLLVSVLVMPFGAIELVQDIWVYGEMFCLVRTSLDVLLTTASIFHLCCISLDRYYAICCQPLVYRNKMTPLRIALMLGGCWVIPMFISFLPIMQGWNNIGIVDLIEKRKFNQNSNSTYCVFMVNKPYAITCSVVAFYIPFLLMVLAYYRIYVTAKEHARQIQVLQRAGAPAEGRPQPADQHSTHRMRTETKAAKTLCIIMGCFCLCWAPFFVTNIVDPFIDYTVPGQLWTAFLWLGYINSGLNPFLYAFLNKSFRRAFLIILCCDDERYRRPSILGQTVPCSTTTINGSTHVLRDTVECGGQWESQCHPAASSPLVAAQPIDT
isolated guinea pig ascending colon, sequence (O70528 whole entry): as above

| Ki [1] | IC50 [2] | EC50 [3] | Ki [2] | Structure (SMILES) |
| --- | --- | --- | --- | --- |
| 0.44 nM |  | 1.2 nM | 260 nM | COc1cc(N)c(Cl)cc1C(=O)NC[C@H]1CCN(CCCCNC(=O)c2cn(C)c3ccccc23)C1 [Example 85, N-(4-((3R)-3-(4-amino-5-chloro-2-methoxybenzoylaminomethyl)pyrrolidin-1-yl)butyl)-1-methyl-1H-indole-3-carboxamide] |
| 1.2 nM |  | 1.4 nM | 350 nM | COc1cc(N)c(Cl)cc1C(=O)NC[C@H]1CCN(CCCCCNC(=O)c2cn(C)c3ccccc23)C1 [Example 88, N-(5-((3R)-3-(4-amino-5-chloro-2-methoxybenzoylaminomethyl)pyrrolidin-1-yl)pentyl)-1-methyl-1H-indole-3-carboxamide] |
| 0.43 nM | > 1000 nM | 0.9 nM |  | COc1cc(N)c(Cl)cc1C(=O)NCC1CCN(CCCCCNC(=O)c2cn(C)c3ccccc23)CC1 [Example 90, N-(5-(4-(4-amino-5-chloro-2-methoxybenzoylaminomethyl)piperidin-1-yl)pentyl)-1-methyl-1H-indole-3-carboxamide] |

The remaining lines, values behind:

| Structure (SMILES) | Ki [1] | IC50 [2] | EC50 [3] | Ki [2] |
| --- | --- | --- | --- | --- |
| COc1cc(N)c(Cl)cc1C(=O)NCC1CCN(CCCCCN2C(=O)c3ccccc3C2=O)C1 (stereo not drawn) [Example 70, 4-amino-5-chloro-N-(1-(5-(2,3-dihydro-1,3-dioxo-1H-isoindol-2-yl)pentyl)pyrrolidin-3-ylmethyl)-2-methoxybenzamide] | 7.4 nM | > 1000 nM | 6.7 nM |  |
| COc1cc(N)c(Cl)cc1C(=O)NCC1CCN(CCCCNC(=O)c2cn(C)c3ccccc23)CC1 [Example 98, N-(4-(4-(4-amino-5-chloro-2-methoxybenzoylaminomethyl)piperidin-1-yl)butyl)-1-methyl-1H-indole-3-carboxamide] | 1.6 nM | > 1000 nM | 4 nM |  |
